In patent publication US10894087B2, “Multi-arm polymeric prodrug conjugates of cabazitaxel-based compounds” (Nektar Therapeutics, priority 2010, dated 2021):
Like-named read-outs stand apart in the source and are kept apart here.

Columns and labels:
[1] = system: H460 non-small cell lung cancer (NSCLC) implants; conditions: for % TGD / Median TTE (Median Time to Endpoint) / TGD (tumor growth delay compared to vehicle) / CR (Number of Complete Regressions) / Deaths / PR (Number of Partial Regressions) / TFS (Number of Tumor Free Survivors) / MTV (Median Tumor Volume) / BW Nadir (d), day of nadir: iv; for % TGD / Median TTE (Median Time to Endpoint) / TGD (tumor growth delay compared to vehicle) / CR (Number of Complete Regressions) / Deaths / PR (Number of Partial Regressions) / TFS (Number of Tumor Free Survivors) / MTV (Median Tumor Volume): qwk x 3; for CR (Number of Complete Regressions) / Deaths / PR (Number of Partial Regressions) / TFS (Number of Tumor Free Survivors): N=10; for BW Nadir (d), day of nadir: mouse, in vivo
Description: Purpose. Studies were conducted to assess the growth inhibitory effects of PEGylated-conjugates of cabazitaxel on H460 non-small cell lung cancer (NSCLC) implants in athymic nu/nu mice.
Experimental plan. These studies were conducted using routine methods and materials that are familiar to those skilled in the art. Briefly, 8 to 12 week old female nu/nu mice were injected subcutaneously in the flank with 1×10^7 H460 tumor cells in 0.2 mL sterile buffer. […] Animals received three intravenous doses of test article at one week intervals beginning on day 1. Cabazitaxel solutions were prepared in D5W containing 5% Tween 80:10% ethanol. PEG-cabazitaxel conjugates were prepared in D5W. The administration volume for all test articles was 10 mL/kg. The test doses were selected to represent the MTD and ½ the MTD for each test compound. The tables list the actual mg/kg for each test article and the corresponding cabazitaxel equivalent calculated based on the weight-percent cabazitaxel content for each PEGylated conjugate.
Animals were weighed on days 1-5, 7, 9, 11, 13 then biweekly until the end of the study. Tumor sizes were measured using calipers biweekly throughout the study and tumor volumes were calculated using the formula for an ellipsoid sphere: L×W^2/2=mm^3, where L and W are the major axis dimensions of the tumor in mm. Additional parameters that were monitored were the number of non-specific deaths, number of partial and complete tumor regressions, number of tumor-free survivors, and the time required for individual animals' tumors to reach 2000 mm^3. The median time for a tumor to reach 2000 mm^3 in the treatment groups (T) and control group (C) was used to calculate of the overall delay in the growth of the median tumor (TGD). Animals were monitored individually until reaching the experimental endpoint: tumor size of 2000 mm^3 or 45 days, whichever came first. […] When the study endpoint was reached, the animals were euthanized.

[2] = Maximum tolerated dose (MTD) study of PEGylated conjugates of cabazitaxel in athymic mice; format: in vivo, female athymic nu/nu mice; conditions: qw x 3, iv; for Treatment-Related Deaths: N=5; for Estimated MTD, cabazitaxel equivalents: athymic nu/nu mice, guide value, not a definitive MTD
Description: Purpose. This study was performed to determine appropriate doses of each compound for tumor xenograft studies. In those studies, it is desirable to administer the maximum dose of test compound that will not cause excessive loss of body weight. In general, loss of ˜15% of the initial body weight of the animal is typically the maximum desired.
Experimental procedure. MTD for 4-arm-conjugated to cabazitaxel were determined in female athymic nu/nu mice using standard methods. Briefly, 8-12 week old mice were administered test compounds or cabazitaxel intravenously at one week intervals for a total of three doses per mouse (qw×3, iv) as shown in Tables 1 and 2. For all PEG-conjugated test compounds, the doses of both the conjugate and released cabazitaxel, calculated from the cabazitaxel content of the respective conjugate, are shown. […] PEG-cabazitaxel conjugates were prepared in D5W. […] Mice were observed daily for clinical signs and body weights were recorded on days 1-5 and then biweekly until the end of study. All procedures were conducted in compliance with IACUC requirements. […] For any group with two measurements of mean body weight loss of greater than 20%, dosing was stopped and recovery was allowed. Within a group with greater than 20% mean weight loss, individual animals greater than 30% body weight loss were euthanized. Compound dosing was terminated for any group in which mean weight loss exceeded 20% or >10% of animals died. Moribund animals were euthanized and all animals were euthanized at end of study (day 30).
Results. The results for the study MTD “20K Conjugates” are summarized in Table 3 and FIG. 1 while the results for the MTD “30K and 40K Conjugates” study are summarized Table 4 and FIG. 2. […] It should be noted that this is not meant to be a definitive MTD, but is simply a guide to select an appropriate dose for conducting tumor xenograft studies using this administration route and schedule. Note too, that these MTD are given as cabazitaxel equivalents. The actual dose of each conjugate must be corrected for the wt % of cabazitaxel in that specific conjugate.

[3] = mainly by the CYP3A4/5 isozyme; cited from earlier work
[4] = 20K conjugate xenograft study, 12.5 mg/kg cabazitaxel eq.
[5] = 20K conjugate xenograft study, 25 mg/kg cabazitaxel eq.
[6] = MTD study 20K conjugates, 7.5 mg/kg cabazitaxel eq.
[7] = MTD study 20K conjugates, 15 mg/kg cabazitaxel eq.
[8] = MTD study 20K conjugates, 30 mg/kg cabazitaxel eq.
[9] = 20K conjugate xenograft study, 15 mg/kg cabazitaxel eq.
[10] = 20K conjugate xenograft study, 30 mg/kg cabazitaxel eq.
[11] = 30K and 40K conjugate xenograft study, 15 mg/kg cabazitaxel eq.
[12] = 30K and 40K conjugate xenograft study, 30 mg/kg cabazitaxel eq.
[13] = MTD study 30K and 40K conjugates, 30 mg/kg cabazitaxel eq.

Molecule: 4-ARM-PEG20K-Butanoate-Linked Cabazitaxel Conjugate [4-arm-PEG20K-BA-Cabazitaxel]
- Tumor growth inhibition compared with cabazitaxel and the other conjugates (in words) ([1]; 20K conjugate xenograft study): did not provide greater tumor growth inhibition than either cabazitaxel or the other PEG-cabazitaxel conjugates tested in this study
- % TGD [1, 4]: 36%
- Median TTE (Median Time to Endpoint) [1, 4]: 25.3 days
- TGD (tumor growth delay compared to vehicle) [1, 4]: 6.7 days
- CR (Number of Complete Regressions) [1, 4]: 0
- Deaths [1, 4]: 0
- PR (Number of Partial Regressions) [1, 4]: 0
- TFS (Number of Tumor Free Survivors) [1, 4]: 0
- % TGD [1, 5]: 112%
- Median TTE (Median Time to Endpoint) [1, 5]: 39.3 days
- TGD (tumor growth delay compared to vehicle) [1, 5]: 20.8 days
- CR (Number of Complete Regressions) [1, 5]: 0
- Deaths [1, 5]: 0
- PR (Number of Partial Regressions) [1, 5]: 0
- TFS (Number of Tumor Free Survivors) [1, 5]: 0
- Treatment-Related Deaths [2, 6]: 0
- BW Nadir [2, 7]: −1.3%
- BW Nadir (day) [2, 7]: 2 days
- Treatment-Related Deaths [2, 7]: 0
- BW Nadir [2, 8]: −16.6%
- BW Nadir (day) [2, 8]: 20 days
- Treatment-Related Deaths [2, 8]: 0
- Estimated MTD, cabazitaxel equivalents [2]: 25 mg/kg

Molecule: CO[C@H]1C(=O)[C@]2(C)[C@@H](OC)C[C@H]3OC[C@@]3(OC(C)=O)[C@H]2[C@H](OC(=O)c2ccccc2)[C@]2(O)C[C@H](OC(=O)[C@H](O)[C@@H](NC(=O)OC(C)(C)C)c3ccccc3)C(C)=C1C2(C)C [Cabazitaxel, (2α,5β,7β,10β,13α-4-acetoxy-13-({(2R,3S)-3-[(tertbutoxycarbonyl)amino]-2-hydroxy-3-phenylpropanoyl}oxy)-1-hydroxy-7,10-dimethoxy-9-oxo-5,20-epoxytax-11-en-2-yl benzoate]
- % TGD [1, 9]: 52%
- MTV (Median Tumor Volume) [1, 9]: 1764 mm^3
- Median TTE (Median Time to Endpoint) [1, 9]: 28.1 days
- TGD (tumor growth delay compared to vehicle) [1, 9]: 9.6 days
- CR (Number of Complete Regressions) [1, 9]: 0
- Deaths [1, 9]: 0
- PR (Number of Partial Regressions) [1, 9]: 0
- TFS (Number of Tumor Free Survivors) [1, 9]: 0
- % TGD [1, 10]: 154%
- MTV (Median Tumor Volume) [1, 10]: 918 mm^3
- TGD (tumor growth delay compared to vehicle) [1, 10]: 28.5 days
- CR (Number of Complete Regressions) [1, 10]: 0
- Deaths [1, 10]: 0
- PR (Number of Partial Regressions) [1, 10]: 3
- TFS (Number of Tumor Free Survivors) [1, 10]: 0
- % TGD [1, 11]: 87%
- Median TTE (Median Time to Endpoint) [1, 11]: 27.9 days
- TGD (tumor growth delay compared to vehicle) [1, 11]: 13 days
- CR (Number of Complete Regressions) [1, 11]: 0
- Deaths [1, 11]: 0
- PR (Number of Partial Regressions) [1, 11]: 0
- TFS (Number of Tumor Free Survivors) [1, 11]: 0
- % TGD [1, 12]: 208%
- MTV (Median Tumor Volume) [1, 12]: 994 mm^3
- TGD (tumor growth delay compared to vehicle) [1, 12]: 31.1 days
- CR (Number of Complete Regressions) [1, 12]: 0
- Deaths [1, 12]: 0
- PR (Number of Partial Regressions) [1, 12]: 5
- TFS (Number of Tumor Free Survivors) [1, 12]: 0
- BW Nadir (d), day of nadir ([1]; 15 mg/kg): (22) d
- BW Nadir (d), day of nadir ([1]; 30 mg/kg): (22) d
- Extent metabolized in the liver [3]: > 95%
- BW Nadir [2, 8]: −15.4%
- BW Nadir (day) [2, 8]: 20 days
- Treatment-Related Deaths [2, 8]: 0
- BW Nadir [2, 13]: −6.8%
- BW Nadir (day) [2, 13]: 21 days
- Treatment-Related Deaths [2, 13]: 0

Molecule: 4-ARM-PEG20K-Acetate-Linked Cabazitaxel [4-arm-PEG20K-CM-Cabazitaxel]
- % TGD [1, 4]: 99%
- Median TTE (Median Time to Endpoint) [1, 4]: 36.8 days
- TGD (tumor growth delay compared to vehicle) [1, 4]: 18.3 days
- CR (Number of Complete Regressions) [1, 4]: 0
- Deaths [1, 4]: 0
- PR (Number of Partial Regressions) [1, 4]: 0
- TFS (Number of Tumor Free Survivors) [1, 4]: 0
- % TGD [1, 5]: 154%
- MTV (Median Tumor Volume) [1, 5]: 358 mm^3
- TGD (tumor growth delay compared to vehicle) [1, 5]: 28.5 days
- CR (Number of Complete Regressions) [1, 5]: 0
- Deaths [1, 5]: 0
- PR (Number of Partial Regressions) [1, 5]: 10
- TFS (Number of Tumor Free Survivors) [1, 5]: 0
- BW Nadir [2, 6]: −3.4%
- BW Nadir (day) [2, 6]: 3 days
- Treatment-Related Deaths [2, 6]: 0
- BW Nadir [2, 7]: −2.0%
- BW Nadir (day) [2, 7]: 3 days
- Treatment-Related Deaths [2, 7]: 0
- BW Nadir [2, 8]: −10.2%
- BW Nadir (day) [2, 8]: 23 days
- Treatment-Related Deaths [2, 8]: 0
- Estimated MTD, cabazitaxel equivalents [2]: 25 mg/kg
